In general, IC50 refers to the concentration that inhibits the measured activity by half. Broadly, the logD is lipophilicity at a set pH, counting ionised and neutral species. A low value points to lower lipophilicity. As a reminder, the pKa is the negative logarithm of the acid dissociation constant. Higher therefore signals a weaker acid or stronger base. For orientation: solubility means the dissolved amount per volume that the medium holds. The low end stands for a poorly soluble substance, the high end for a readily soluble substance. As usually defined, the inhibition is the change of the read-out against control, counted positive when it falls. A word on the efflux ratio: it is a quotient of directional permeabilities that is used to spot active efflux. In general, Papp A→B refers to the apparent permeability from the apical to the basolateral side of a cell layer. Low values mean slow passage, high ones fast passage. One may read the Vd as a proportionality between amount in the body and measured concentration, not a real space. One may read the half-life as the time needed for the level to fall by half in the phase considered. Broadly, the bioavailability is dose-corrected exposure relative to a reference, in per cent.

Molecules are shown by their SMILES. Values after ≈ are worked out from the molar mass of the structure shown. Values joined by “and” are separate entries in the source; they are usually repeats but may differ in a detail not shown here. Equal entries are not always repeated. Where two headings read alike, the source gives them in different places. Bounds are passed on as bounds.

This note sets out measurements from PMC11247499, “2,8-Disubstituted-1,5-naphthyridines as Dual Inhibitors of Plasmodium falciparum Phosphatidylinositol-4-kinase and Hemozoin Formation with In Vivo Efficacy” (Journal of Medicinal Chemistry, 2024).

In one data set the target is PvPI4K (Plasmodium vivax, UniProt A5KB26). Kind of data set: biochemical.
Data set [1] deals with P. falciparum NF54 strain. Put plainly: Antiplasmodial activity, parasite lactate dehydrogenase assay, NF54. It counts as cell-based, Plasmodium falciparum. The following applies: parasite lactate dehydrogenase assay over 72 h, read-out: Pf IC50 ± SD NF54.
Data set [2] deals with multidrug-resistant strain, K1. Put plainly: Antiplasmodial activity, parasite lactate dehydrogenase assay, K1. The data set is classed as cell-based, Plasmodium falciparum. Conditions: Plasmodium falciparum, K1, 72 h, parasite lactate dehydrogenase assay over 72 h; read-out: Pf IC50 ± SD K1.
In data set [3] the test system is Chinese Hamster Ovary (CHO) cell line. Put plainly: cells. It counts as cell-based. The following applies: Cricetulus griseus, CHO, read-out: CHO IC50.
For a further data set, the system named is Dd2. Kind of data set: microbe, parasite or virus in culture. The data set is classed as cell-based. Conditions: Plasmodium falciparum, DD2, 72 h, read-out: Dd2 IC50 ± SD.
A further data set deals with Dd2_PI4K_CNV. Kind of data set: microbe, parasite or virus in culture. The data set is classed as cell-based. The following applies: Plasmodium falciparum, 72 h, read-out: Dd2_PI4K_CNV IC50.
The next data set deals with T1, hERG channels (Homo sapiens, UniProt Q12809).
T1 construct: expressed in transfected cells; host or cells: CHO cells
Kind of data set: hERG inhibition, QPatch automated patch clamp assay. The data set is classed as cell-based. Conditions: CHO cells stably expressing the hERG channels. On the technique in general: The hERG channel carries a current that helps repolarise heart muscle cells.

A short description of a further data set: LogD shake-flask. It counts as physicochemical. Conditions: n-octanol/phosphate buffer (1:1), phosphate buffer (pH 7.4) / n-octanol.
A short description of another data set: pKa of piperidine N. The data set is classed as physicochemical.
The subject of the next data set is β-hematin (βH) formation. Put plainly: NP-40 mediated cell-free β-hematin assay. Conditions: read-out: β-hematin IC50.
Data set [4] can be described thus: Solubility, miniaturized shake flask method.
The test system of data set [5] is P. falciparum male gametes. Put plainly: microbe, parasite or virus in culture. The following applies: Plasmodium falciparum, 48 h, read-out: inhibition of exflagellation.
Data set [6] deals with P. falciparum PI4K conditional knockdown line. Put plainly: microbe, parasite or virus in culture. Conditions: for IC50: Plasmodium falciparum. The data set is classed as cell-based, Plasmodium falciparum.
In the next data set the target is cytochrome P450 2C9 (Homo sapiens, UniProt P11712). Put plainly: Cytochrome P450 inhibition, 2C9. It counts as in vitro ADME.
A further data set has as its target cytochrome P450 3A4 (Homo sapiens, UniProt P08684). Kind of data set: Cytochrome P450 inhibition, 3A4. The data set is classed as in vitro ADME.
The next data set has as its target cytochrome P450 2C19 (Homo sapiens, UniProt P33261). Kind of data set: Cytochrome P450 inhibition, 2C19. The data set is classed as in vitro ADME.
The next data set in a line: Caco-2 permeability. The data set is classed as in vitro ADME. Conditions: human.
Data set [7] can be described thus: Plasma protein binding, human. The data set is classed as in vitro ADME. The following applies: pooled human plasma, read-out: PPB fu, human.
The nature of data set [8]: In vitro microsomal stability, human. The data set is classed as in vitro ADME. Conditions: pooled human liver microsomes, pH 7.4, read-out: microsomal CLint, app human. In general terms: Liver microsomes are vesicles of endoplasmic reticulum, rich in cytochrome P450 enzymes.
The nature of data set [9]: In vitro microsomal stability, rat. The data set is classed as in vitro ADME. Conditions: rat liver microsomes, pH 7.4, read-out: microsomal CLint, app rat.
A short description of data set [10]: In vitro microsomal stability, mouse. Conditions: mouse liver microsomes, pH 7.4, read-out: microsomal CLint, app mouse. It counts as in vitro ADME.
The nature of data set [11]: Mouse pharmacokinetic studies. The following applies: male, BalbC; for Vd at 24 h / half-life at 24 h / bioavailability at 24 h: in vivo; for Vd at 24 h / half-life at 24 h / in vivo mouse CLb: iv, 2 mg/kg; for bioavailability at 24 h: po.
The target of the next data set is HuPI3Kα (Homo sapiens, UniProt P42336). Put plainly: Human kinase inhibition, HuPI3Kα. Conditions: read-out: HuPI3Kα, IC50.
The target in a further data set is HuPI4Kβ (Homo sapiens, UniProt Q9UBF8). Kind of data set: Human kinase inhibition, HuPI4Kβ. Conditions: read-out: HuPI4Kβ, IC50.
Another data set has as its target HuMINK1 (Homo sapiens, UniProt Q8N4C8). Kind of data set: Human kinase inhibition, HuMINK1. The following applies: read-out: HuMINK1, IC50.
For the next data set, the target named is HuMAP4K4 (Homo sapiens, UniProt O95819). Kind of data set: Human kinase inhibition, HuMAP4K4. The following applies: read-out: HuMAP4K4, IC50.
Data set [12] is described as follows: Plasma protein binding, mouse. The following applies: read-out: PPB fu, mouse. It counts as in vitro ADME.
Where [13] appears, read: purified recombinant PvPI4K, 10 μM ATP, ADP-Glo, mean of N ≥ 2, read-out: PvPI4K IC50 ± SD.
Setting [14] is: Plasmodium falciparum, NF54, 72 h.
Where [15] appears, read: cell-free NP-40 detergent-mediated assay, n = 2.

Sequence of PvPI4K (A5KB26 entry or part of it): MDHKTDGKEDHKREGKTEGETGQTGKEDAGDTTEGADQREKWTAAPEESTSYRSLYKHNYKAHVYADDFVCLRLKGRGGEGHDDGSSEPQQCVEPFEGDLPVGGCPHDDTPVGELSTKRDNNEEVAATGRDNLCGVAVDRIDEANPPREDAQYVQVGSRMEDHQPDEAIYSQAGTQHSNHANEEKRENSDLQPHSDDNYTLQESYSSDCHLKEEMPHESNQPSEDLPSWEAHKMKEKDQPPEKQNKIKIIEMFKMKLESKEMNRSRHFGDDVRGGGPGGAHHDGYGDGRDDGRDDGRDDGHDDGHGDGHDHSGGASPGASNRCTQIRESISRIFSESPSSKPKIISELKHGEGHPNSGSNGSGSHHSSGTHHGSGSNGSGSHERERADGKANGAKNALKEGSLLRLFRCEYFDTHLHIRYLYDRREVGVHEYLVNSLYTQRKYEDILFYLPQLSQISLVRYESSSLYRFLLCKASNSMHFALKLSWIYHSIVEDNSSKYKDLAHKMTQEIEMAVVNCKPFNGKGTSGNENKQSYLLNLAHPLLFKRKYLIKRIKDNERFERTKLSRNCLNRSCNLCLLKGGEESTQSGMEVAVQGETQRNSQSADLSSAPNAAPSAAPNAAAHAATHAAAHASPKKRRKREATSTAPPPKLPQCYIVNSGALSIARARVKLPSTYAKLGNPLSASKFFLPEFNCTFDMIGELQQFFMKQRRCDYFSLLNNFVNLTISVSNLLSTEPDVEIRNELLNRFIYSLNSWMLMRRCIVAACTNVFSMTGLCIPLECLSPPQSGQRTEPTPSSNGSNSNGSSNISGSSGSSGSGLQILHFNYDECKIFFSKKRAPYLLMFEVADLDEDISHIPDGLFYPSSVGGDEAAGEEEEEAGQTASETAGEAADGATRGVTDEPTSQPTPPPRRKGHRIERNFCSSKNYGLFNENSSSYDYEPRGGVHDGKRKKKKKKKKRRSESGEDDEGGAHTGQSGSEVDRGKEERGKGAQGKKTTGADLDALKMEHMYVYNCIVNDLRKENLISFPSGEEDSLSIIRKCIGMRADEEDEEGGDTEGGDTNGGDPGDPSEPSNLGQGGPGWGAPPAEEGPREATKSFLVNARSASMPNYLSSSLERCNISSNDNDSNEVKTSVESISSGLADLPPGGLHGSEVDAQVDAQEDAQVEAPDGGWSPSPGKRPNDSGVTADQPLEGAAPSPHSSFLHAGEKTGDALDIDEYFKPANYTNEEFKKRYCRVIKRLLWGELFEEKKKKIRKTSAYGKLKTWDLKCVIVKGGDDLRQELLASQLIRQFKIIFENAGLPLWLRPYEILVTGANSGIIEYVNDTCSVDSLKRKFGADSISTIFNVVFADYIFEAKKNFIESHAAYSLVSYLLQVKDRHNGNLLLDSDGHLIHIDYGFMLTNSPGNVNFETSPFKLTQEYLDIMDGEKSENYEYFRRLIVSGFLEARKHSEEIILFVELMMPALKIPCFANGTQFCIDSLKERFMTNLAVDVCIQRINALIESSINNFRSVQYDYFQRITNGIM
Sequence of cytochrome P450 3A4 (P08684 whole entry): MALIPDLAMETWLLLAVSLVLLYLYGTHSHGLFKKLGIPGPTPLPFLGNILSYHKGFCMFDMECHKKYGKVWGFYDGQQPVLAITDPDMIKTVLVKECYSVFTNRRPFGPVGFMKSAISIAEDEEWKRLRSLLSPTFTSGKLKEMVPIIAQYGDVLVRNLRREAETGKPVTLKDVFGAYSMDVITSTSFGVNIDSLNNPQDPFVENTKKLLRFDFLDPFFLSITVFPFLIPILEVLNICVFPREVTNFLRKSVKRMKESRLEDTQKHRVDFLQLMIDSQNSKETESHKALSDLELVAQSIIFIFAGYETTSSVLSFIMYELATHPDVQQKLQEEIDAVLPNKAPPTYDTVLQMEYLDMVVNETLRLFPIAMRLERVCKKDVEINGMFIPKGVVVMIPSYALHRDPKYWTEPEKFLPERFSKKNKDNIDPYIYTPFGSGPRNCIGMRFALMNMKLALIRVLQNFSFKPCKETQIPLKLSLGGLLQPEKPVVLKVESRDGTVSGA
T1 sequence (Q12809 whole entry): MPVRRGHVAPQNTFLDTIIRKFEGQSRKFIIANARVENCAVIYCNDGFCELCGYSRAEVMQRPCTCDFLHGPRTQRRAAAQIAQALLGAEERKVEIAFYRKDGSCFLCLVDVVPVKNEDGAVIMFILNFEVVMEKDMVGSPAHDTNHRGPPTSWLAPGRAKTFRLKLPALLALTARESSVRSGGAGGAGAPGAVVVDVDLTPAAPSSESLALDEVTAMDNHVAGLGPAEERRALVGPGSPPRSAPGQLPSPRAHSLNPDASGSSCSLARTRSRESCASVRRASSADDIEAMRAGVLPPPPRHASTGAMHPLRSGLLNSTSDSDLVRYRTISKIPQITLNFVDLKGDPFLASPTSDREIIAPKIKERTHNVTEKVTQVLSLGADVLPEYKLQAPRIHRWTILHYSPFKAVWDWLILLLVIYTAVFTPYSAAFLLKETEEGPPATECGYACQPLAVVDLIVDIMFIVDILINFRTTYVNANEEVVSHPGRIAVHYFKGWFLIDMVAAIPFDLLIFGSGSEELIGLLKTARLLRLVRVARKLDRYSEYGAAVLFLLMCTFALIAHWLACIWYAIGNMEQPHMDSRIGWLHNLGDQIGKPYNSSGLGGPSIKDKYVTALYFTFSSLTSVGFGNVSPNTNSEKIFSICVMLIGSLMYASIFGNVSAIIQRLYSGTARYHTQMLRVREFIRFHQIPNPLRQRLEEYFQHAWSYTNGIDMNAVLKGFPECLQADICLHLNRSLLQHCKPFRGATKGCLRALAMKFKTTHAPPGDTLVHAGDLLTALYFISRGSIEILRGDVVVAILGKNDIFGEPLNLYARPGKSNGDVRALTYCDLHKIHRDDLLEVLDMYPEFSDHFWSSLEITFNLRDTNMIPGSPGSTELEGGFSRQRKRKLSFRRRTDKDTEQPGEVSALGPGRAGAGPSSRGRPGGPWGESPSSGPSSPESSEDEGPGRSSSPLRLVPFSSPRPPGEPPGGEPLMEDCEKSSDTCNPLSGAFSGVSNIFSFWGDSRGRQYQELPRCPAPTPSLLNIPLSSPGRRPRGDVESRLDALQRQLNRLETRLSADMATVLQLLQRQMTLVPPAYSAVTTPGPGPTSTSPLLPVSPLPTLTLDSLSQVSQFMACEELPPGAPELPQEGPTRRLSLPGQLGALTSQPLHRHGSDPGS
Sequence of HuPI4Kβ (Q9UBF8 whole entry): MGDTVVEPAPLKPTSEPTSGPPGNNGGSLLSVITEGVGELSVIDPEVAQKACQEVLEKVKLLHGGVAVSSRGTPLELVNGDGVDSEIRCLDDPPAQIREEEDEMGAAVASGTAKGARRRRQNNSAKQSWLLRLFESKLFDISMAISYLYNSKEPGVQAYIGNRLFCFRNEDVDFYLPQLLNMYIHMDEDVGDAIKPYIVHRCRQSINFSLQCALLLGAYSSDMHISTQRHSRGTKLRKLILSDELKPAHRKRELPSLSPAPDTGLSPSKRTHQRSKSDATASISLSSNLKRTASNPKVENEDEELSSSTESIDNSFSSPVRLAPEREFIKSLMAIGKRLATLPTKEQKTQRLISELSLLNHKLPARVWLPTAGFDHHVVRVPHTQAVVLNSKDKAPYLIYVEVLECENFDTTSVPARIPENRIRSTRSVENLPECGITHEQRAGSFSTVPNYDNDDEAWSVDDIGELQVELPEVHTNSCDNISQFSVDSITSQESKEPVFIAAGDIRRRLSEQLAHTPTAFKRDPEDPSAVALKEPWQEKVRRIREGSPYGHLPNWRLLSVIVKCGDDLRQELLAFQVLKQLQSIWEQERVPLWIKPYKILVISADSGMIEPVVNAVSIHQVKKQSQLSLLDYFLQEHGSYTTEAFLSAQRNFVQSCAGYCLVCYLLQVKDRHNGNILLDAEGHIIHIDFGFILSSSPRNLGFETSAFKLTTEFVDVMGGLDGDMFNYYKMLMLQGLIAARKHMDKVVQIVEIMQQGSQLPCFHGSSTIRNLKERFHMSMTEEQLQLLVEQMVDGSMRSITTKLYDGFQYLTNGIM
Sequence of cytochrome P450 2C9 (P11712 whole entry): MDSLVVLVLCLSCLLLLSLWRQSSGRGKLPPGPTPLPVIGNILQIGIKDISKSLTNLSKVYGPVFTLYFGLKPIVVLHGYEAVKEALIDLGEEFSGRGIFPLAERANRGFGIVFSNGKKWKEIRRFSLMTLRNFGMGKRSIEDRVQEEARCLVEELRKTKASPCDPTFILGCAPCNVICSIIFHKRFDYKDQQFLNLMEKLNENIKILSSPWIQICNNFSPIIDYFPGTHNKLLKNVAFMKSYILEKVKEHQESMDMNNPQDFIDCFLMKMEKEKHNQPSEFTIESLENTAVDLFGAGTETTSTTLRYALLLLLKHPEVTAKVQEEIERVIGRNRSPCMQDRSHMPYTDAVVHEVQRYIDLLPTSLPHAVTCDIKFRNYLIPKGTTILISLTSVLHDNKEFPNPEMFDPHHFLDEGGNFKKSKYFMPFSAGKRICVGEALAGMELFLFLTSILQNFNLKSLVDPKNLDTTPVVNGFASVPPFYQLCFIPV
Sequence of cytochrome P450 2C19 (P33261 whole entry): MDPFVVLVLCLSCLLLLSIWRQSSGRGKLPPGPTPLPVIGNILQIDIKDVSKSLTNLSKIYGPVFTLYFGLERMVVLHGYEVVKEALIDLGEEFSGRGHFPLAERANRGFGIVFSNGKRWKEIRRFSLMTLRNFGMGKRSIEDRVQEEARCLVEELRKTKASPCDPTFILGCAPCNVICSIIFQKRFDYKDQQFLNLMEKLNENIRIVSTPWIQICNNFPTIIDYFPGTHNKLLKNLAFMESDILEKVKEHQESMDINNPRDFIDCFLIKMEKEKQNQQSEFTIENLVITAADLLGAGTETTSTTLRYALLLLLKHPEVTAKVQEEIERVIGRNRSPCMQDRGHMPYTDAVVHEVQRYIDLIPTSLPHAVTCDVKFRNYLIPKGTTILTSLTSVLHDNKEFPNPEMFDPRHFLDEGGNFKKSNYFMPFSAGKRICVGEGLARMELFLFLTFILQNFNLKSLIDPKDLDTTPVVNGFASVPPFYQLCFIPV

As for `O[C@H]1CNCC[C@H]1Nc1ccnc2ccc(-c3ccc(C(F)(F)F)nc3)nc12` (relative stereo) [Compound 27, rac-cis-4-[[6-[6-(Trifluoromethyl)pyridin-3-yl]-1,5-naphthyridin-4-yl]amino]piperidin-3-ol], the IC50 at PvPI4K (setting [13]) stood at 370 ± 175 nM; in [1] (setting [14]), 140 nM; in [1], 130 ± 24 nM; in data set [2] it was 334 ± 147 nM; in data set [3] (MTT assay over 48h), 33000 nM; with Dd2, 437 ± 71 nM. In addition, the IC50 in the data set on Dd2_PI4K_CNV came out at 381 ± 17 nM; at hERG channels, 24500 nM; in the data set with β-hematin (βH) formation (setting [15]) it was 140000 ± 7000 nM. Besides, the logD at 3 h in “LogD shake-flask” came to 1.02. In “pKa of piperidine N”, this molecule gave a pKa of 8.99. The amount in solution in data set [4] (aqueous solution) (solubility at 20 h) came to 200 µM (≈ 77.9 µg/mL).
As to `NS(=O)(=O)c1cccc(-c2ccc3nccc(-c4ccnc(C(F)(F)F)c4)c3n2)c1` [Compound 1], the IC50 in data set [3] (48 h) is 6000 nM; with β-hematin (βH) formation it was > 500000 nM. Moreover, the inhibition at 2 µM in [5] worked out at 60%.
With `FC(F)(F)c1ccc(-c2ccc3nccc(N[C@@H]4CCNC4)c3n2)cn1` [Compound 16, N-[(3R)-Pyrrolidin-3-yl]-6-[6-(trifluoromethyl)pyridin-3-yl]-1,5-naphthyridin-4-amine], the IC50 is 66 ± 21 nM at PvPI4K (setting [13]); 86 ± 16 nM in [1] (setting [14]); > 50000 nM in [3] (MTT assay over 48h); 71 nM in data set [6] (72 h, read-out: ABS IC50 for PfPI4K cKD, N=1, +aTc, experiment N=1, +aTc (500 nM, control conditions), 72 hours); 72 nM in [6] (72 h, read-out: ABS IC50 for PfPI4K cKD, N=1, no aTc, experiment N=1, no aTc (PI4K knockdown), 72 hours); 118 nM in data set [6] (72 h, read-out: ABS IC50 for PfPI4K cKD, N=2, +aTc, experiment N=2, +aTc (500 nM, control conditions), 72 hours). The IC50 was 118 nM in [6] (72 h, read-out: ABS IC50 for PfPI4K cKD, N=2, no aTc, experiment N=2, no aTc (PI4K knockdown), 72 hours); 63 nM in data set [6] (72 h, read-out: ABS IC50 for PfPI4K cKD, N=3, +aTc, experiment N=3, +aTc (500 nM, control conditions), 72 hours); 72 nM in data set [6] (72 h, read-out: ABS IC50 for PfPI4K cKD, N=3, no aTc, experiment N=3, no aTc (PI4K knockdown), 72 hours); 84 ± 30 nM in data set [6] (read-out: ABS IC50 for PfPI4K cKD, Mean + SD, +aTc, mean of N=3, +aTc (control conditions)); 88 ± 27 nM in data set [6] (read-out: ABS IC50 for PfPI4K cKD, Mean + SD, no aTc, mean of N=3, no aTc (PI4K knockdown)); > 20000 nM at cytochrome P450 2C9. The IC50 on cytochrome P450 3A4 is > 20000 nM; on cytochrome P450 2C19, > 20000 nM; at HuPI3Kα, 8900 nM; on HuPI4Kβ it was > 10000 nM; at HuMINK1 it was > 10000 nM; at HuMAP4K4, > 10000 nM. The IC50 in the data set with β-hematin (βH) formation (setting [15]) is 32000 nM and < 60000 nM. Besides, the “ABS IC50 for PfPI4K cKD, N=1, fold shift” value in data set [6] (experiment N=1, +aTc vs no aTc) stood at 0.98 fold. Also, the “ABS IC50 for PfPI4K cKD, N=2, fold shift” value in [6] (experiment N=2, +aTc vs no aTc) is listed as 1.00 fold. Moreover, the “ABS IC50 for PfPI4K cKD, N=3, fold shift” value in data set [6] (experiment N=3, +aTc vs no aTc) is listed as 0.88 fold. In addition, in [6] (mean, +aTc vs no aTc), the “ABS IC50 for PfPI4K cKD, mean fold shift (fold decrease in IC50 on knockdown)” value worked out at 0.95 fold. The molecule also came in with a logD at 3 h in the data set “LogD shake-flask” of 0.96. Also, the efflux ratio in the data set “Caco-2 permeability” is 13. Besides, the Papp A→B in the data set “Caco-2 permeability” (A > B) is 2.6 ×10⁻⁶ cm/s. For the same molecule, the fraction unbound at 5 h, 5 µM in data set [7] came out at 0.18. Further, the CLint scaled at 1 µM in data set [8] is < 13 mL/min/kg; in data set [9], < 21 mL/min/kg; in data set [10] it was < 467 mL/min/kg. Further, the “in vivo mouse CLu” value in data set [11] worked out at 76 mL/min/kg. In data set [11], this molecule gave a Vd at 24 h of 3.1 L/kg. The molecule further showed a half-life at 24 h in data set [11] of 2.7 h. For the same molecule, the bioavailability at 24 h in data set [11] was determined as 96%. Moreover, in data set [11], the “in vivo mouse CLb” value turned out to be 13.70 mL/min/kg. Also, the solubility at 20 h was found to be 195 µM (≈ 70.1 µg/mL) in [4] (PBS, pH 6.5) and 200 µM (≈ 71.9 µg/mL) in [4] (aqueous solution).
Take `CN1CCC(Nc2ccnc3ccc(-c4ccc(C(F)(F)F)nc4)nc23)CC1` [Compound 21, N-(1-Methylpiperidin-4-yl)-6-[6-(trifluoromethyl)pyridin-3-yl]-1,5-naphthyridin-4-amine]: the IC50 at PvPI4K (setting [13]) is 175 ± 82 nM; in data set [1] (setting [14]), 52 ± 14 nM; in data set [2] it was 162 ± 4 nM; in data set [3] (MTT assay over 48h) it was > 50000 nM; in the data set with β-hematin (βH) formation (setting [15]), 35000 nM and < 60000 nM. In “LogD shake-flask”, this molecule came in with a logD at 3 h of 1.86. Also, the fraction unbound at 5 h, 5 µM in data set [7] was determined as 0.5; in data set [12] it was 0.3. The results for the CLint scaled at 1 µM in [8], in [9] and in data set [10] were < 10 mL/min/kg, < 21 mL/min/kg and < 46 mL/min/kg, respectively. Further, in data set [11], the “in vivo mouse CLu” value turned out to be 22 mL/min/kg. In [11], the Vd at 24 h came to 12 L/kg. The molecule further showed a half-life at 24 h in data set [11] of 16 h. In data set [11], this molecule registered a bioavailability at 24 h of 99%. Besides, the “in vivo mouse CLb” value in data set [11] was 9.90 mL/min/kg. For the same molecule, the solubility at 20 h in data set [4] (PBS, pH 6.5) was determined as 160 µM (≈ 62 µg/mL); in data set [4] (aqueous solution) it was 160 µM (≈ 62 µg/mL).
Turning to `FC(F)CN1CCC(Nc2ccnc3ccc(-c4ccc(C(F)(F)F)nc4)nc23)CC1` [Compound 23, N-[1-(2,2-Difluoroethyl)piperidin-4-yl]-6-[6-(trifluoromethyl)pyridin-3-yl]-1,5-naphthyridin-4-amine], the IC50 at PvPI4K was 53 ± 28 nM; in data set [1] (setting [14]) it was 880 ± 34 nM; in the data set with β-hematin (βH) formation (setting [15]) it was 30000 nM and < 60000 nM. Moreover, in the data set “physchem”, the solubility was determined as 20 µM (≈ 8.75 µg/mL).
